Measured values: US20130245110A1, “USE FOR CANNABINOIDS” (priority 2008, published 2013)

Columns and labels:
C57B1/Ks db/db mouse [1] = assay: Plasma insulin concentration; assay type: in vivo; details: db/db mice
Procedure: (§1) Inflammation is also a feature of type II diabetic animals and man. […] However, as a result of the C57B1/Ks genetic background rather than the C57B1/6, the mice show loss of pancreatic function from around 6/7 weeks of age and by 10 weeks show frank diabetes.
The mice were given chow diet (Bantin and Kingman, no 1 diet) and water ad lib. The mice were kept under controlled lighting conditions (lights on 08.00 h, 12 h light/12 h dark) and at a room temperature of 21°±1° C.
(§2) • Daily: Food and water intake • Twice weekly: Body weight and glucose • Day 1: Weigh mice, dose compounds, provide measured amount of food, provide measured amount of water • Days 2, 5 and 8: Fed blood glucose concentration • Day 9: Oral glucose tolerance • Days 12 and 16: Fed blood glucose concentration • Day 19: 24 hr glycaemic assay • Days 22, 26 and 29: Fed blood glucose concentration • Day 33: 24 hr glycaemic assay • Day 38: Fed blood glucose concentration • Day 39: Body composition by Dexascan in anaesthetised mice • Day 41: Termination. Take blood samples for glucose, free fatty acids, triglycerides, cholesterol, insulin and HbA

C57B1/Ks db/db mouse [2] = assay: Glycaemic control (blood glucose, oral glucose tolerance, 24 h glucose profile); assay type: in vivo; details: db/db mice
From the text: as §1, §2

PPARγ = target: T1, PPARγ (Homo sapiens, UniProt P37231); assay: Transcriptional transactivation assay (luciferase reporter gene 3xPPRE TK luc); assay type: cell-based; details: any concentration tested
T1 construct: expressed in transfected cells
T1 sequence (P37231 1-505): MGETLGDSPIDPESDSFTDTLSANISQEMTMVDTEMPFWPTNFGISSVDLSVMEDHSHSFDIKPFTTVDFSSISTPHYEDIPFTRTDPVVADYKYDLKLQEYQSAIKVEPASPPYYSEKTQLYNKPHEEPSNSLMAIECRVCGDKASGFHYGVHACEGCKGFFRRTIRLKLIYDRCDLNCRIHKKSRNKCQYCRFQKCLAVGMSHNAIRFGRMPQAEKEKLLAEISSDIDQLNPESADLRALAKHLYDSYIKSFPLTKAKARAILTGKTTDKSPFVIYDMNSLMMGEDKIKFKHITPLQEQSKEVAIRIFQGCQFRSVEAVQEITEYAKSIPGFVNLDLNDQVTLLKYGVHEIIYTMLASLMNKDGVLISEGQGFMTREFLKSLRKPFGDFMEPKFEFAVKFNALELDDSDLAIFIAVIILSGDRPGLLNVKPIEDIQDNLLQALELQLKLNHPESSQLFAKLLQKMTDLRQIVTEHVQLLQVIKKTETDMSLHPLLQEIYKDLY
T1 sequence (P19793 1-462 partner): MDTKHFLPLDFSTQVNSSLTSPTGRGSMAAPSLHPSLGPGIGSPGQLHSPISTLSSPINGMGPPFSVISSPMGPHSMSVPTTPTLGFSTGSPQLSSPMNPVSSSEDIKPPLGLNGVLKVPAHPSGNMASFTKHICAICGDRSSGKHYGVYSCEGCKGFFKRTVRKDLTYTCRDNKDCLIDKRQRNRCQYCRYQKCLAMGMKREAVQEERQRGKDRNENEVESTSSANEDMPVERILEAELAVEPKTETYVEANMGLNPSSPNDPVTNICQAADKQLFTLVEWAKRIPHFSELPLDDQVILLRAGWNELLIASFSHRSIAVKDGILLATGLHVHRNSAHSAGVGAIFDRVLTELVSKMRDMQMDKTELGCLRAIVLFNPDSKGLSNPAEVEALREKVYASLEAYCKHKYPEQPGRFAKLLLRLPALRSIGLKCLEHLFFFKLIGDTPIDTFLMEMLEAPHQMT
Procedure: In vitro vascular studies were carried out in rat isolated aortae by wire myography. PPARγ activation was investigated using reporter gene assays, a PPARγ competition-binding assay and an adipogenesis assay.

Row | Structure (SMILES) | Plasma insulin during the 24 h glucose profiles (C57B1/Ks db/db mouse [1]) | Glycaemic control versus control (C57B1/Ks db/db mouse [2]) | PPARγ transcriptional activity (PPARγ)
1 | C=C(C)[C@@H]1CCC(C)=C[C@H]1c1c(O)cc(CCCCC)cc1O [CBD, cannabidiol] | no consistent effect was seen | did not show significant differences in glycaemic control | 
2 | CCCc1cc(O)c2c(c1)OC(C)(C)[C@@H]1CCC(C)=C[C@@H]21 [THCV, tetrahydrocannabivarin] |  |  | no effect
